Laboratory results as given in US20120151612A1, “NON-SURGICAL APPROACH TO PREVENT AND CORRECT CRANIOFACIAL MALFORMATIONS DURING DEVELOPMENT” (UNIVERSITY OF SOUTHERN CALIFORNIA, priority 2010, published 2012).
Entries after “also recorded” stand apart in the source; their conditions may differ.

Assays:
[1] = system: Tgfbr2^fl/fl; Wnt1-Cre MEPM cells; test: Lipid droplet accumulation (Oil Red O staining) in primary MEPM cells; type: cell-based, mice
Method: Histological examination. Cryosections were stained with Oil Red O to detect lipid production. Prepared sections were washed three times in phosphate buffer saline (PBS) (each wash 5 min) and fixed in 4% formaldehyde in 0.1 M phosphate buffer for 1 h at room temperature. Sections were then incubated for 15 min in 60% isopropanol and stained for 15 min with a filtered solution of three parts of Oil Red O (saturated in isopropanol) and two parts of ddH2O. For the next step, slides were briefly rinsed in 60% isopropanol and washed thoroughly in ddH2O. Cells were counterstained in Mayers Hematoxylin Solution.
(§1) Primary MEPM cells. Primary MEPM cells were obtained from E13.5 embryos. Briefly, palatal shelves were dissected at E13.5, and trypsinized for 30 minutes at 37° C. in a CO2 incubator. After pipetting thoroughly, cells were cultured in Dulbecco's modified Eagle's medium containing 10% fetal bovine serum supplemented with penicillin, streptomycin, L-glutamate, sodium pyruvate, and nonessential amino acids.

[2] = system: Tgfbr2^fl/fl; Wnt1-Cre palate; test: Palatal shelf organ culture, BrdU-labeled nuclei (Example 2); type: cell-based, mice; conditions: ex vivo organ culture, 100 μM, 24 hours
Method: Histological examination. Hematoxylin and eosin staining and BrdU staining were performed as described previously. Immunohistochernical staining was performed as described previously. Antibodies used for immunohistochemistry were anti-β-spectrin rabbit polyclonal, and anti-Tgf-βRIII mouse monoclonal antibodies (Santa Cruz Biotechnology), anti-Tgf-β2 mouse monoclonal, and anti-14-3-3ζ/δ rabbit polyclonal antibodies (Abeam). Fluorescence images were obtained using a fluorescence microscope (Model IX71, Olympus).
Palatal shelf organ culture. Time-pregnant mice were sacrificed at E13.5. Genotyping was carried out as described above. The palatal shelves were microdissected and cultures in serum-less chemically defined medium as previously described. After 24 hours in culture treated with p38 MAPK inhibitor SB203580 (100 μM), and neutralizing antibody for Tgf-β2 (2 μg/ml) or Tgf-βRIII (2 μg/ml), palates were harvested, fixed in 4% paraformaldehyde/0.1 M phosphate buffer (pH 7.4) and processed.

[3] = system: p38 MAPK; test: Immunoblot of p38 MAPK and 14-3-3ζ/δ phosphorylation in primary MEPM cells; type: cell-based, mice; conditions: Tgfbr2^fl/fl; Wnt1-Cre MEPM cells, 10 μM for 24 hours
Method: as §1

[4] = system: MEPM cells; test: Pulse-chase analysis of lipid droplet formation; type: cell-based, mice
Method: Pulse-chase analysis of lipid droplet formation. Chemical inducers, oleic acid for lipogenesis and isoproterenol for lipolysis, were added into culture medium to analyze lipid droplet formation. The number of lipid droplets per cell was counted. Oleic acid was added to the medium at 100 μM for 0, 60, and 120 min, and then washed out and changed to the medium with 100 μM isoproterenol for 10 and 30 min. Twenty cells were counted at each time point.

[5] = system: Tgfbr2^fl/fl; Wnt1-Cre mice; test: Rescue of cleft palate in Tgfbr2^fl/fl; Wnt1-Cre embryos after feeding telmisartan to pregnant females; type: in vivo; conditions: for cleft palate (in words): Tgfbr2 mutant mice, treatment of pregnant mice
Method: (§2) Animals. To generate Tgfbr2^fl/fl; Wnt1-Cre mice, we mated Tgfbr2^fl/+; Wnt1-Cre with Tgfbr2^fl/fl mice. To generate Tgfbr2^fl/fl; Wnt1-Cre; Tgfb2^+/− mice, we mated Tgfbr2^fl/+; Wnt1-Cre; Tgfb2^+/− with Tgfbr2^fl/fl mice. To generate Tgfbr2^fl/fl; Wnt1-Cre; Alk5^fl/+ mice, we mated Tgfbr2^fl/+; Wnt1-Cre; Alk5^fl/fl with Tgfbr2^fl/fl; Alk5^fl/fl mice. Genotyping was performed using PCR primers as described previously^28, 29. Female Tgfbr2^fl/fl mice, which underwent timed matings with Tgfbr2^fl/+; Wnt1-Cre male mice, were treated with oral telmisartan (0.5 mg in 25 μl dimethyl sulfoxide per day by a feeding tube) or vehicle (25 μl dimethl sulfoxide by a feeding tube) from 0.5 day post-coitum (E0.5). Therapy was continued throughout pregnancy.

[6] = system: Tgfbr2^fl/fl; Wnt1-Cre mice; test: Triacylglycerol level in mice after telmisartan treatment; type: in vivo; conditions: E18.5
Method: as §2
Triacylglycerol amount. Triacylglycerol amounts were measured by an enzymatic method using N-ethyl-N-(2-hydroxy-3-sulfopropyl)-3,5-dimethoxyaniline sodium salt according to the manufacturer's instructions (Wako). Data is expressed as mg per 100 mg protein.

[7] = system: p38 MAPK; test: Immunoblotting of p38 MAPK activity in mice after telmisartan treatment; type: in vivo; conditions: Tgfbr2^fl/fl; Wnt1-Cre mice after telmisartan treatment
Method: Animals. To generate Tgfbr2^fl/fl; Wnt1-Cre mice, we mated Tgfbr2^fl/+; Wnt1-Cre with Tgfbr2^fl/fl mice. To generate Tgfbr2^fl/fl; Wnt1-Cre; Tgfb2^+/- mice, we mated Tgfbr2^fl/+; Wnt1-Cre; Tgfb2^+/- with Tgfbr2^fl/fl mice. To generate Tgfbr2^fl/fl; Wnt1-Cre; Alk5^fl/+ mice, we mated Tgfbr2^fl/+; Wnt1-Cre; Alk5^fl/fl with Tgfbr2^fl/fl; Alk5^fl/fl mice. Genotyping was performed using PCR primers as described previously^28, 29. Female Tgfbr2^fl/fl mice, which underwent timed matings with Tgfbr2^fl/+; Wnt1-Cre male mice, were treated with oral telmisartan (0.5 mg in 25 μl dimethyl sulfoxide per day by a feeding tube) or vehicle (25 μ[…] sulfoxide by a feeding tube) from 0.5 day post-coitum (E0.5). Therapy was continued throughout pregnancy. Immunological analysis. Immunoblots were performed as described previously. Antibodies used for immunoblotting were as follows: rabbit polyclonal antibodies against p38, JNK, and phospho-JNK (Cell Signaling Technology), 14-3-3ζ/δ, Smad2/3, […] (Abeam), phospho-14-3-3 (ABR), 14-3-3ε, and β-spectrin (Santa Cruz Biotechnology); rabbit monoclonal antibodies against phospho-p38, and phospho-Smad2 (Cell Signaling Technology); and mouse monoclonal antibodies against Smad4, and Tgf-βrIII (Santa Cruz Biotechnology), Tgf-β2 (Abeam), and GAPDH (Chemicon). MEPM cells were treated with or without p38 MAPK inhibitor SB203580 at 10 μM for 24 hours.

[8] = system: Tgfbr2^fl/fl and Tgfbr2^fl/fl; Wnt1-Cre embryos; test: Histological analyses of embryo organs (heart, kidney, liver) after feeding telmisartan to pregnant females; type: in vivo, mice
Method: as §2
Histological examination. Hematoxylin and eosin staining and BrdU staining were performed as described previously. Immunohistochemical staining was performed as described previously. Antibodies used for immunohistochemistry were anti-β-spectrin rabbit polyclonal, and anti-Tgf-βrIII mouse monoclonal antibodies (Santa Cruz Biotechnology), anti-Tgf-β2 mouse monoclonal, and anti-14-3-3 rabbit polyclonal antibodies (Abeam). Fluorescence images were obtained using a fluorescence microscope (Model IX71, Olympus).

[9] = system: palatal mesenchyme of E13.5 palatal explants; test: Palatal shelf organ culture with bead implantation or antibody, BrdU cell proliferation and fusion (Example 1); type: cell-based, mice
Method: Palatal shelf organ cultures and bead implantation. Timed-pregnant mice were sacrificed on postcoital day 13.5 (E13.5). Genotyping was carried out as previously described (Depew et al., 1999; Satokata and Maas, 1994). Paired secondary palatal shelves were microdissected and cultured in serumless, chemically-defined medium as previously described (Ito et al., 2003). For bead implantation, Affi-Gel blue agarose beads (BioRad) were soaked in proteins as previously described (Zhang et al., 2002). […] Shh N-terminal peptide (R & D 7 systems) was used at 1 mg/ml, anti-Shh antibody (Developmental Studies Hybridoma Bank) was used at 0.30 mg/ml, and BSA was used at 10 ng/ml. Neutralizing antibodies to Fgf7 (MAB251) and Mouse IgG1 (MAB002) (R & D Systems) were added to the culture medium at concentrations of 50 μg/ml.
Apoptosis and cell proliferation. Following treatment with […] proteinase K for 15 minutes at room temperature, apoptotic cells were assayed by the TUNEL procedure using the In Situ Cell Death Detection (fluorescein) kit (Roche Molecular Biochemicals) by following the manufacturer's protocol. Cell proliferation was scored by injection of BrdU (5-bromo-2′-deoxy-uridine, Sigma. 100 μg/g body weight) into pregnant females 1 hour before recovery of embryos. For palatal organ culture, BrdU was supplemented into culture medium at concentration of 100 μM for 2 hours before harvest. […]

[10] = system: MEE of E13.5 wild type palatal shelves; test: TUNEL apoptosis assay in palatal explants; type: cell-based, mice; conditions: Shh beads vs BSA beads
Method: (§3) Palatal shelf organ cultures and bead implantation. Timed-pregnant mice were sacrificed on postcoital day 13.5 (E13.5). Genotyping was carried out as previously described (Depew et al., 1999; Satokata and Maas, 1994). Paired secondary palatal shelves were microdissected and cultured in serumless, chemically-defined medium as previously described (Ito et al., 2003). For bead implantation, Affi-Gel blue agarose beads (BioRad) were soaked in proteins as previously described (Zhang et al., 2002). Tissues were harvested after 24 hours of culture and fixed in 4% paraformaldehyde for processing. Shh N-terminal peptide (R & D 7 systems) was used at 1 mg/ml, anti-Shh antibody (Developmental Studies Hybridoma Bank) was used at 0.30 mg/ml, and BSA was used at 10 ng/ml. Neutralizing antibodies to Fgf7 (MAB251) and Mouse IgG1 (MAB002) (R & D Systems) were added to the culture medium at concentrations of 50 μg/ml.
Apoptosis and cell proliferation. Following treatment with […] proteinase K for 15 minutes at room temperature, apoptotic cells were assayed by the TUNEL procedure using the In Situ Cell Death Detection (fluorescein) kit (Roche Molecular Biochemicals) by following the manufacturer's protocol. Cell proliferation was scored by injection of BrdU (5-bromo-2′-deoxy-uridine, Sigma. 100 μg/g body weight) into pregnant females 1 hour before recovery of embryos. […]

[11] = system: Fgf7 expression; test: In situ hybridization of Fgf7 in treated palatal explants; type: cell-based, mice; conditions: Shh beads vs BSA beads
Method: as §3
(§4) In situ hybridization. Samples for whole-mount and section in situ hybridization were fixed in freshly made 4% paraformaldehyde/PBS. In situ hybridizations were performed as previously described (Xu et al., 2005). The following cDNAs were used to generate antisense riboprobes: a 1.2 kb fragment of mouse Msx1, a 900 bp mouse Dlx5, a 1.6 kb mouse Gli1, and 640 bp mouse Shh. […]

[12] = system: Shh expression in the palatal epithelium; test: In situ hybridization of Shh in treated palatal explants; type: cell-based, mice; conditions: Fgf7 beads
Method: as §3, §4

Molecule: C[S+]([O-])c1ccc(-c2nc(-c3ccc(F)cc3)c(-c3ccncc3)[nH]2)cc1 (stereo not shown) [SB203580, 4-[4-(4-fluorophenyl)-2-(4-methylsulfinylphenyl)-1H-imidazol-5-yl]pyridine]
- lipid droplet accumulation [1]: failed to detect lipid droplet accumulation; also recorded: Lipid droplets did not accumulate
- cell proliferation defect (BrdU-labeled nuclei) [2]: rescued cell proliferation
- phosphorylation of 14-3-3ζ/δ [3]: inhibited
- phosphorylation of p38 (Mapk14) [3]: inhibited

Molecule: CC(C)NCC(O)c1ccc(O)c(O)c1 (stereo not shown) [isoproterenol]
- number of lipid droplets ([4]; Tgfbr2^fl/fl MEPM cells, after switch to 100 μM isoproterenol): decreased immediately
- lipid droplet number ([4]; Tgfbr2^fl/fl, Wnt1-Cre MEPM cells, after switch to 100 μM isoproterenol): remained high

Molecule: CCCCCCCC/C=C\CCCCCCCC(=O)O [oleic acid]
- number of lipid droplets ([4]; MEPM cells of both Tgfbr2^fl/fl and Tgfbr2^fl/fl, Wnt1-Cre mice, oleic acid 100 μM): increased

Molecule: CCCc1nc2c(C)cc(-c3nc4ccccc4n3C)cc2n1Cc1ccc(-c2ccccc2C(=O)O)cc1 [telmisartan, 2-(4-{[4-methyl-6-(1-methyl-1H-1,3-benzodiazol-2-yl)-2-propyl-1H-1,3-benzodiazol-1-yl]methyl}phenyl)benzoic acid]
- cell proliferation defect ([5]; Tgfbr2^fl/fl, Wnt1-Cre mice following telmisartan treatment): restored cell proliferation defect
- cleft palate (in words) [5]: prevents the cleft palate
- cleft palate (in words) ([5]; listed as Telmisartan): rescue cleft palate defects
- cleft palate rescued, number of Tgfbr2^fl/fl; Wnt1-Cre mice ([5]; oral telmisartan 0.5 mg per day to pregnant females from E0.5): 5/18
- increased triacylglycerol level [6]: restored to normal
- up-regulated p38 MAPK activity [7]: restored to normal
- effect on kidney or liver histology ([8]; Tgfbr2^fl/fl and Tgfbr2^fl/fl, Wnt1-Cre embryos): does not appear to affect kidney or liver
- heart defect ([8]; Tgfbr2^fl/fl, Wnt1-Cre mice after telmisartan): does not rescue the heart defect
- side-effects in other organs ([8]; embryos after telmisartan to pregnant females): without obvious side-effects in other organs

Molecule: Shh: Shh N-terminal peptide (R & D systems) used at 1 mg/ml, soaked into Affi-Gel blue agarose beads
- palatal mesenchyme cell proliferation (BrdU) ([9]; E13.5 wild type palatal explants, Shh beads vs BSA beads): enhanced
- palatal fusion of explants ([9]; Shh beads, two days of culture): able to fuse
- apoptosis in the MEE (TUNEL) [10]: did not affect apoptosis
- Fgf7 expression [11]: repressed

B1: Fgf7: Fgf7 protein on beads placed into E13.5 palatal shelves in vitro (protein)
chain: CNDMSPEQTATSVNCSSPERHTRSYDYMEGGDIRVRRLFCRTQWYLRIDKRGKVKGTQEMKNSYNIMEIRTVAVGIVAIKGVESEYYLAMNKEGKLYAKKECNEDCNFKELILENHYNTYASAKWTHSGGEMFVALNQKGIPVKGKKTKKEQKTAHFLPMAIT
- Shh expression in the palatal epithelium ([12]; Dlx5−/− samples): inhibit Shh expression
- Shh expression in the palatal epithelium ([12]; E13.5 palatal shelves, one day of culture, compared to BSA): dramatic reduction
